Columns and labels:
[1] = Solubility at equilibrium in water; type: physicochemical; conditions: thermodynamic from solid
Method: (§1) It is a very lipophilic compound (Log P approximately 7), wherein the solubility at equilibrium in water is <1 μg/ml. It is thus particularly difficult to formulate for parenteral administration.

[2] = Lipophilicity (Log P) of the nicotinic ester of DHA; type: physicochemical
Method: as §1

Compound: CC/C=C\C/C=C\C/C=C\C/C=C\C/C=C\C/C=C\CCC(=O)OCc1cccnc1 [nicotinic ester of DHA, pyridin-3-ylmethyl-cis-4,7,10,13,16,19-docosahexaenoic acid]
- solubility [1]: < 1 µg/mL
- logP [2]: ~7
